From US20180117005A1, “COMPOSITIONS FOR THE TREATMENT OF CANCER” (THE GENERAL HOSPITAL CORPORATION, priority 2015, published 2018) come the findings set out here.

For the test, the system named is tumor that expresses high levels of CXCL12. In words: Tumor growth in mice with a subcutaneous CXCL12-expressing tumor, AMD3100 followed by cisplatin. The class given is in vivo. The method, then:
Mice are injected with tumor cells (subcutaneous injection) from a tumor that expresses high levels of CXCL12 and a tumor allowed to develop. Once the tumor has formed, the mice are injected (subcutaneous in the same flank as the tumor) with AMD3100 or vehicle, once a day for 5 days.
One to three days after the final dose of AMD3100, mice are injected via intraperitoneal injection with a therapeutically effective amount of cisplatin 18 hours prior to assay of tumor growth.

As for `c1cc(CN2CCCNCCNCCCNCC2)ccc1CN1CCCNCCNCCCNCC1` [AMD3100], the “Delay in tumor growth, co-treatment versus cisplatin alone” value (AMD3100 subcutaneous once a day for 5 days, then cisplatin intraperitoneal one to three days after the final dose) is recorded as “synergistic effect”.
In the case of `N.N.[Cl][Pt][Cl]` [cisplatin], the Tumor growth result (cisplatin intraperitoneal 18 hours prior to assay, growth resumes soon after treatment is discontinued in mice not administered AMD3100) was “delayed”.
